Molecular target: T1, recombinant human GluN1/GluN2A receptor (Homo sapiens, UniProt Q05586+Q12879)
T1 construct: expressed in transfected cells; host or cells: HEK293, tetracycline-inducible expression
Assay: Whole-cell patch clamp of mammalian cells (Syncropatch 384i), NMDA modulation
Assay type: cell-based
Settings: Table B-2, HEK293 cells, human GluN1/GluN2A, glutamate 1 μM / glycine 100 μM, -80 mV, peak amplitude increase; for EC50: read-out: EC50
Description: Whole-Cell Patch Clamp of Mammalian Cells (Syncropatch 384i (Nanion Technologies))
Whole-cell patch clamp electrophysiology was used to investigate the effects of compounds on GluN1/GluN2A N-methyl-D-aspartate (NMDA) glutamate receptors expressed in mammalian cells.
Human embryonic kidney (HEK293) cells expressing the recombinant human GluN1/GluN2A receptor under the control of a tetracycline-inducible expression system were used. Cells were maintained in Dulbecco's Modified Eagle's Medium (DMEM) with 1% glutamine, 10% Tetracycline System Approved fetal bovine serum (FBS), and NMDA inhibitors. Cells were cultured in a humidified 5% CO2 incubator at 37° C. Cells were induced with 50 ng/ml tetracycline 18-24 hours prior to testing. A cocktail of channel blockers was added to the media to prevent cell death.
Cells were 60-80% confluent at the time of harvest. Cells were detached from the flask TrypLE Enzyme Express (Thermo Fisher) at 37° C., and then cold extracellular solution was added to the flask, followed by incubation at 4° C. and then trituration of the cells. The cell solution was then placed on a shaker on the Syncropatch platform at 10° C. with a shake speed of a minimum 200 rpm for at least 30 minutes prior to testing.
Extracellular (EC) solution (in mM) —140 NaCl, 4 KCl, 5 CaCl2, 10 HEPES, 5 Glucose, pH 7.4 with NaOH. All external solutions contained 0.2% DMSO and 0.01% Kolliphor® EL (C5135, Sigma) throughout the experiment.
Intracellular (IC) solution (in mM) —120 CsF, 10 mM EGTA, 10 NaCl, 10 HEPES, 4 NaATP, 2 MgCl2, pH 7.2 with CsOH.
First, the DMSO Master Plate was prepared, in which the DMSO stock of each test compound was serially diluted in 100% DMSO to 1000× the final assay concentration. Immediately prior to assay testing, the compounds were diluted 1:100 by transferring solutions from the DMSO Mast Plate to the Intermediate Plate pre-filled with EC solution using a Biomek FX automated liquid handling system. Compounds were then diluted further with extracellular solution into two pre-incubation plates—1) compound from the Intermediate Plate was mixed with EC solution at a 1:5 dilution to create a 2× Compound Pre-Incubation Plate which was diluted a further 1:2 when added to the Syncropatch for the initial compound pre-incubation. And 2) compound from the Intermediate plate was mixed with EC solution at a 1:10 Dilution to create the 1× Compound Pre-Incubation Plate, which was used for subsequent compound pre-incubations. Finally, a Compound+Agonist Plate was prepared by mixing compound from the 2× Compound Pre-Incubation Plate with 2× concentration of co-agonists in a 1:1 ratio.
Each experiment sequentially included cell catching, sealing, whole-cell formation, liquid application, recording and data acquisition. Whole-cell patch clamp recordings were performed using multi-hole high resistance chips on the SyncroPatch 384i (Nanion Technologies). A steady-state voltage pulse at -80 mV was applied throughout the assay and a 10 second recording window was triggered around 1 second prior to application of co-agonists. Currents were leak corrected and sampled at 5 kHz.
A fast application was used, in which 5 μl co-agonist was rapidly applied at a speed of 30 μl/s and then rapidly removed from the well. To test for modulator activity, the co-agonists glutamate (1 μM) and glycine (100 μM) were applied three times to show activation reproducibility, followed by 120 seconds pre-incubation of test compound alone. The test compound was then re-applied in the presence of co-agonists two times. This was followed by application of the agonist alone, although test compound may not be fully washed from the well prior to this step. Finally, a saturating concentration of co-agonists (glutamate 100 μM/glycine 100 μM) was applied.
The voltage protocol generation data collection and analysis were performed on PatchControll384 and DataControll384. […]

T1 sequence (Q12879 23-1464, other chains not shown): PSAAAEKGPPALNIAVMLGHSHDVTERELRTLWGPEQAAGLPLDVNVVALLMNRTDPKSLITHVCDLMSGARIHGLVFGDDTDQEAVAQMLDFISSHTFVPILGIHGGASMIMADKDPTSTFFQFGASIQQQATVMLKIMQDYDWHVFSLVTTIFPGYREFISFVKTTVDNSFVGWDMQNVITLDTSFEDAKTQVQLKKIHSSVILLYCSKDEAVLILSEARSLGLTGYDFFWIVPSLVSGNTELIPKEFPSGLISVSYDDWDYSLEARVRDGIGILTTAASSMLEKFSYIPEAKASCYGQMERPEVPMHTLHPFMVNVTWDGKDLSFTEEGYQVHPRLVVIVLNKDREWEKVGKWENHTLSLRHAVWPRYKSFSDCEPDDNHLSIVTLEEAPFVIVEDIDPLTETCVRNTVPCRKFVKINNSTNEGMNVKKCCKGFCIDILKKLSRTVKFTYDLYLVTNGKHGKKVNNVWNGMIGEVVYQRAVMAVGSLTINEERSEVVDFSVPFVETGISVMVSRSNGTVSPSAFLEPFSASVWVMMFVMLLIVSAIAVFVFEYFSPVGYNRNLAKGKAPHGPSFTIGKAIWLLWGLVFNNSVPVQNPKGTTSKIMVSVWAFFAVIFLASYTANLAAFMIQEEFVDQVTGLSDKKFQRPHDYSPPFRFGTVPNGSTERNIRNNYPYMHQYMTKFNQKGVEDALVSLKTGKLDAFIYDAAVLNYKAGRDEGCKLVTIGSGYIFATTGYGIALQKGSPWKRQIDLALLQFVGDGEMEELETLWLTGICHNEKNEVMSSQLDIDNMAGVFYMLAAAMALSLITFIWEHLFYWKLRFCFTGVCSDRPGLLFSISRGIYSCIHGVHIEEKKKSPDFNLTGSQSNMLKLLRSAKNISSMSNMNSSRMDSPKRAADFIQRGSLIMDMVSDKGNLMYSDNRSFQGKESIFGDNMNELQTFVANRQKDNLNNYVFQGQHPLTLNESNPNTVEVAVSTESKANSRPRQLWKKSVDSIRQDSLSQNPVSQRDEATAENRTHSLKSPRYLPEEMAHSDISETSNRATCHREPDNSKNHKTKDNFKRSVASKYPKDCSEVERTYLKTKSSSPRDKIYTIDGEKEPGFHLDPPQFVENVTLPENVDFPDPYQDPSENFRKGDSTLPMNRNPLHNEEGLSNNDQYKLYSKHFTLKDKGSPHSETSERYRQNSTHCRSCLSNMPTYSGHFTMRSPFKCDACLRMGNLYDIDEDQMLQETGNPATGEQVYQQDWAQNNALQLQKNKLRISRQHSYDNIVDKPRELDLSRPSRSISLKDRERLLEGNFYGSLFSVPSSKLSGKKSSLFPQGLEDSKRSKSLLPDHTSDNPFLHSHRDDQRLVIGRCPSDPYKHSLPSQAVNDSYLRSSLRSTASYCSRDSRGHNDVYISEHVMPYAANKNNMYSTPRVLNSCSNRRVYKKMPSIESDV

Structure (SMILES)	Emax [%]	EC50 [nM]
CC[C@]1(O)CC[C@@]2(C)[C@@H](CC[C@H]3[C@@H]4[C@H]5C[C@H]5[C@H]([C@H](C)CC[C@@](C)(O)C(F)(F)F)[C@@]4(C)CC[C@@H]32)C1 [Compound B-7, (2S,4aS,4bS,6aR,7S,7aR,8aS,8bS,8cR,10aS)-2-ethyl-4a, 6a-dimethyl-7-((2R,5R)-6,6,6-trifluoro-5-hydroxy-5-methylhexan-2-yl)octadecahydrocyclopropa[4,5]cyclopenta[1,2-a]phenanthren-2-ol]	100 to 200	100 to 500
CC[C@]1(O)CC[C@@]2(C)[C@@H](CC[C@@H]3[C@@H]2CC[C@@]2(C)[C@H]3C[C@H]3C[C@]32[C@H](C)CCCC(C)(C)O)C1 [Compound B-8, (2aS,4S,6aS,6bS,8aS,8bS,9aS,10aS,10bR)-4-ethyl-8b-((R)-6-hydroxy-6-methylheptan-2-yl)-6a,8a-dimethyloctadecahydrocyclopropa[3,4]cyclopenta[1,2-a]phenanthren-4-ol]	100 to 200	> 1000
CC[C@]1(O)CC[C@@]2(C)[C@@H](CC[C@@H]3[C@@H]2CC[C@@]2(C)[C@H]3C[C@H]3C[C@]32[C@H](C)CC[C@](C)(O)C(F)(F)F)C1 [Compound B-10, (2aS,4S,6aS,6bS,8aS,8bS,9aS,10aS,10bR)-4-ethyl-6a,8a-dimethyl-8b-((2R,5S)-6,6,6-trifluoro-5-hydroxy-5-methylhexan-2-yl)octadecahydrocyclopropa[3,4]cyclopenta[1,2-a]phenanthren-4-ol]	100 to 200	1 to 100
CC[C@]1(O)CC[C@@]2(C)[C@@H](CC[C@@H]3[C@@H]2CC[C@@]2(C)[C@H]3C[C@H]3C[C@]32[C@H](C)CC[C@@](C)(O)C(F)(F)F)C1 [Compound B-11, (2aS,4S,6aS,6bS,8aS,8bS,9aS,10aS,10bR)-4-ethyl-6a,8a-dimethyl-8b-((2R,5R)-6,6,6-trifluoro-5-hydroxy-5-methylhexan-2-yl)octadecahydrocyclopropa[3,4]cyclopenta[1,2-a]phenanthren-4-ol]	100 to 200	1 to 100
CC[C@]1(O)CC[C@@]2(C)[C@@H](CC[C@H]3[C@@H]4[C@@H](C)C[C@H]([C@H](C)CCCC(C)(C)O)[C@@]4(C)CC[C@@H]32)C1 [Compound B-12, (3S,5S,8R,9S,10S,13R,14S,15S,17R)-3-ethyl-17-((R)-6-hydroxy-6-methylheptan-2-yl)-10,13,15-trimethylhexadecahydro-1H-cyclopenta[a]phenanthren-3-ol]	100 to 200	1 to 100
CC[C@]1(O)CC[C@@]2(C)[C@@H](CC[C@H]3[C@@H]4[C@@H](C)C[C@H]([C@H](C)CC[C@@](C)(O)C(F)(F)F)[C@@]4(C)CC[C@@H]32)C1 [Compound B-13, (3S,5S,8R,9S,10S,13R,14S,15S,17R)-3-ethyl-10,13,15-trimethyl-17-((2R,5R)-6,6,6-trifluoro-5-hydroxy-5-methylhexan-2-yl)hexadecahydro-1H-cyclopenta[a]phenanthren-3-ol]	> 200	100 to 500
CC[C@]1(O)CC[C@@]2(C)[C@@H](CC[C@H]3[C@@H]4[C@@H](C)C[C@H]([C@H](C)CC[C@](C)(O)C(F)(F)F)[C@@]4(C)CC[C@@H]32)C1 [Compound B-14, (3S,5S,8R,9S,10S,13R,14S,15S,17R)-3-ethyl-10,13,15-trimethyl-17-((2R,5S)-6,6,6-trifluoro-5-hydroxy-5-methylhexan-2-yl)hexadecahydro-1H-cyclopenta[a]phenanthren-3-ol]	> 200	1 to 100
CC[C@]1(O)CC[C@@]2(C)[C@@H](CC[C@H]3[C@@H]4[C@H](C)C[C@H]([C@H](C)CC[C@](C)(O)C(F)(F)F)[C@@]4(C)CC[C@@H]32)C1 [Compound B-15, (3S,5S,8R,9S,10S,13R,14S,15R,17R)-3-ethyl-10,13,15-trimethyl-17-((2R,5S)-6,6,6-trifluoro-5-hydroxy-5-methylhexan-2-yl)hexadecahydro-1H-cyclopenta[a]phenanthren-3-ol]	100 to 200	1 to 100
CC[C@]1(O)CC[C@@]2(C)[C@@H](CC[C@H]3[C@@H]4[C@H](C)C[C@H]([C@H](C)CC[C@@](C)(O)C(F)(F)F)[C@@]4(C)CC[C@@H]32)C1 [Compound B-16, (3S,5S,8R,9S,10S,13R,14S,15R,17R)-3-ethyl-10,13,15-trimethyl-17-((2R,5R)-6,6,6-trifluoro-5-hydroxy-5-methylhexan-2-yl)hexadecahydro-1H-cyclopenta[a]phenanthren-3-ol]	100 to 200	100 to 500
CC[C@]1(O)CC[C@@]2(C)[C@@H](CC[C@H]3[C@@H]4[C@H](C5CC5)C[C@H]([C@H](C)CCCC(C)(C)O)[C@@]4(C)CC[C@@H]32)C1 [Compound B-17, (3S,5S,8R,9S,10S,13R,14S,15S,17R)-15-cyclopropyl-3-ethyl-17-((R)-6-hydroxy-6-methylheptan-2-yl)-10,13-dimethylhexadecahydro-1H-cyclopenta[a]phenanthren-3-ol]	100 to 200	100 to 500
CC[C@]1(O)CC[C@@]2(C)[C@@H](CC[C@H]3[C@@H]4[C@H](C)C[C@H]([C@H](C)CCCC(C)(C)O)[C@@]4(C)CC[C@@H]32)C1 [Compound B-18, (3S,5S,8R,9S,10S,13R,14S,15R,17R)-3-ethyl-17-((R)-6-hydroxy-6-methylheptan-2-yl)-10,13,15-trimethylhexadecahydro-1H-cyclopenta[a]phenanthren-3-ol]	100 to 200	1 to 100
CC[C@]1(O)CC[C@@]2(C)[C@@H](CC[C@H]3[C@@H]4[C@@H](C5CC5)C[C@H]([C@H](C)CCCC(C)(C)O)[C@@]4(C)CC[C@@H]32)C1 [Compound B-19, (3S,5S,8R,9S,10S,13R,14S,15R,17R)-15-cyclopropyl-3-ethyl-17-((R)-6-hydroxy-6-methylheptan-2-yl)-10,13-dimethylhexadecahydro-1H-cyclopenta[a]phenanthren-3-ol]	100 to 200	100 to 500
CC[C@]1(O)CC[C@@]2(C)C(=CC[C@H]3[C@@H]4[C@@H]5C[C@@H]5[C@H]([C@H](C)CCCC(C)(C)O)[C@@]4(C)CC[C@@H]32)C1 [Compound B-20, (2S,4aR,4bS,6aR,7S,7aS,8aR,8bS,8cR)-2-ethyl-7-((R)-6-hydroxy-6-methylheptan-2-yl)-4a,6a-dimethyl-1,2,3,4,4a,4b,5,6,6a,7,7a,8,8a,8b,8c,9-hexadecahydrocyclopropa[4,5]cyclopenta[1,2-a]phenanthren-2-ol]	100 to 200	1 to 100
CC[C@]1(O)CC[C@@]2(C)C(=CC[C@H]3[C@@H]4[C@H](C)C[C@H]([C@H](C)CCCC(C)(C)O)[C@@]4(C)CC[C@@H]32)C1 [Compound B-21, (3S,8R,9S,10R,13R,14S,15R,17R)-3-ethyl-17-((R)-6-hydroxy-6-methylheptan-2-yl)-10,13,15-trimethyl-2,3,4,7,8,9,10,11,12,13,14,15,16,17-tetradecahydro-1H-cyclopenta[a]phenanthren-3-ol]	–	1 to 100
